Compound | melting point
C[C@H](NC(=O)Cc1cccc(Cl)c1)C(=O)Nc1ncc(-c2ccccc2COC2CCCCC2)s1 [compound 18, (2S)-2-{[2-(3-chlorophenyl)acetyl]amino}-N-{5-{2-[(cyclohexyloxy)methyl]phenyl}-1,3-thiazol-2-yl}propanamide] | 96 °C
C[C@H](NC(=O)Cc1cc(F)cc(F)c1)C(=O)Nc1ncc(-c2ccc(COC3CCCCC3)cc2)s1 [compound 39, (2S)-N-(5-{4-[(cyclohexyloxy)methyl]phenyl}-1,3-thiazol-2-yl)-2-{[2-(3,5-difluorophenyl)acetyl]amino}-propanamide] | 155 °C
C[C@H](NC(=O)Cc1cc(F)cc(F)c1)C(=O)Nc1ncc(-c2ccccc2COC2CCCC2)s1 [compound 49, (2S)-N-(5-{2-[(cyclopentyloxy)methyl]phenyl}-1,3-thiazol-2-yl)-2-{[2-(3,5-difluorophenyl)acetyl]amino}-propanamide] | 236 °C
C[C@H](NC(=O)Cc1cccc(F)c1)C(=O)Nc1ncc(-c2ccccc2COC2CCCCC2)s1 [compound 19, (2S)-N-(5-{2-[(cyclohexyloxy)methyl]phenyl}-1,3-thiazol-2-yl)-2-{[2-(3-fluorophenyl)acetyl]amino}-propanamide] | 98 °C
CCC[C@H](NC(=O)Cc1cc(F)cc(F)c1)C(=O)Nc1ncc(-c2ccccc2COC2CCCCC2)s1 [compound 42, (2S)-N-(5-{2-[(cyclohexyloxy)methyl]phenyl}-1,3-thiazol-2-yl)-2-{[2-(3,5-difluorophenyl)acetyl]amino}-pentanamide] | 134 °C
CCC(NC(=O)Cc1cc(F)cc(F)c1)C(=O)Nc1ncc(-c2ccccc2COC2CCCCC2)s1 (stereo not shown) [compound 9, N-(5-{2-[(cyclohexyloxy)methyl]phenyl}-1,3-thiazol-2-yl}-2-{[2-(3,5-difluorophenyl)acetyl]amino}butanamide] | 179 °C
C[C@H](NC(=O)Cc1cc(F)cc(F)c1)C(=O)Nc1ncc(-c2ccccc2COC2CCCCC2)s1 [Compound No. 26, (2S)-N-(5-{2-[(cyclohexyloxy)methyl]phenyl}-1,3-thiazol-2-yl)-2-{[2-(3,5-difluorophenyl)acetyl]amino}-propanamide] | 140 °C
CCC[C@H](NC(=O)[C@H](O)c1cc(F)cc(F)c1)C(=O)Nc1ncc(-c2ccccc2COC2CCCCC2)s1 [compound 56, (2S)-N-(5-{2-[(cyclohexyloxy)methyl]phenyl}-1,3-thiazol-2-yl)-2-{[(2R)-2-(3,5-difluorophenyl)-2-hydroxyacetyl]amino}pentanamide] | 112 °C
CCC[C@H](NC(=O)[C@H](O)c1cc(F)cc(F)c1)C(=O)Nc1nc(C)c(-c2ccccc2COC2CCCCC2)s1 [compound 53, (2S)-N-(5-{2-[(cyclohexyloxy)methyl]phenyl}-4-methyl-1,3-thiazol-2-yl)-2-{[(2R)-2-(3,5-difluorophenyl)-2-hydroxyacetyl]amino}pentanamide] | 99.4 °C
C[C@H](NC(=O)Cc1cc(F)cc(F)c1)C(=O)Nc1ncc(-c2cccc(COC3CCCCC3)c2)s1 [compound 24, (2S)-N-(5-{3-[(cyclohexyloxy)methyl]phenyl}-1,3-thiazol-2-yl)-2-{[2-(3,5-difluorophenyl)acetyl]amino}-propanamide] | 123 °C
CC(C)[C@H](NC(=O)Cc1cc(F)cc(F)c1)C(=O)Nc1ncc(-c2ccccc2COC2CCCCC2)s1 [compound 31, (2S)-N-(5-{2-[(cyclohexyloxy)methyl]phenyl}-1,3-thiazol-2-yl)-2-{[2-(3,5-difluorophenyl)acetyl]amino}-3-methylbutanamide] | 87 °C
CCCC[C@H](NC(=O)Cc1cc(F)cc(F)c1)C(=O)Nc1ncc(-c2ccccc2COC2CCCCC2)s1 [compound 47, (2S)-N-(5-{2-[(cyclohexyloxy)methyl]phenyl}-1,3-thiazol-2-yl)-2-{[2-(3,5-difluorophenyl)acetyl]amino}-hexanamide] | 77.6 °C
C[C@H](NC(=O)Cc1cccc(OC(F)(F)F)c1)C(=O)Nc1ncc(-c2ccccc2COC2CCCCC2)s1 [compound 48, (2S)-N-(5-{2-[(cyclohexyloxy)methyl]phenyl}-1,3-thiazol-2-yl)-2-{[2-(3-trifluoromethoxyphenyl)acetyl]-amino}propanamide] | 60 °C
CCC[C@H](NC(=O)C(=O)c1cc(F)cc(F)c1)C(=O)Nc1ncc(-c2ccccc2COC2CCCCC2)s1 [compound 60, (2S)-N-(5-{2-[(cyclohexyloxy)methyl]phenyl}-1,3-thiazol-2-yl)-2-{[2-(3,5-difluorophenyl)-2-oxoacetyl]-amino}pentanamide] | 77 °C
CC(NC(=O)Cc1cc(F)cc(F)c1)C(=O)Nc1ncc(-c2ccccc2COCc2ccccc2)s1 (stereo not shown) [Compound No. 6, N-(5-{2-[(benzyloxy)methyl]phenyl}-1,3-thiazol-2-yl)-2-{[2-(3,5-difluorophenyl)acetyl]amino}propanamide] | 147 °C
CC(C)COCc1ccccc1-c1cnc(NC(=O)C(C)NC(=O)Cc2cc(F)cc(F)c2)s1 (stereo not shown) [compound 4, 2-{[2-(3,5-difluorophenyl)acetyl]amino}-N-{5-[2-(isobutoxymethyl)phenyl]-1,3-thiazol-2-yl}propanamide] | 181 °C
C[C@H](NC(=O)Cc1cc(F)cc(F)c1)C(=O)Nc1ncc(-c2cccc(COCC3CCCCC3)c2)s1 [compound 43, (2S)-N-(5-{3-[(cyclohexylmethoxy)methyl]phenyl}-1,3-thiazol-2-yl)-2-{[2-(3,5-difluorophenyl)acetyl]amino}propanamide] | 144 °C
CC(C)C[C@H](NC(=O)Cc1cc(F)cc(F)c1)C(=O)Nc1ncc(-c2ccccc2COC2CCCCC2)s1 [compound 36, (2S)-N-(5-{2-[(cyclohexyloxy)methyl]phenyl}-1,3-thiazol-2-yl)-2-{[2-(3,5-difluorophenyl)acetyl]amino}-4-methylpentanamide] | 67 °C
COc1ccc(CC(=O)N[C@@H](C)C(=O)Nc2ncc(-c3ccccc3COC3CCCCC3)s2)cc1 [compound 33, (2S)-N-(5-{2-[(cyclohexyloxy)methyl]phenyl}-1,3-thiazol-2-yl)-2-{[2-(4-methoxyphenyl)acetyl]amino}-propanamide] | 74 °C

More lines, now with the values ahead:

melting point | Compound
66.6 °C | CCC[C@H](NC(=O)Cc1cc(F)cc(F)c1)C(=O)Nc1nc(C)c(-c2ccccc2COC(C)C)s1 [compound 71, (2S)-2-{[2-(3,5-difluorophenyl)acetyl]amino}-N-{5-[2-(isopropoxymethyl)phenyl]-4-methyl-1,3-thiazol-2-yl}pentanamide]
194 °C | COCc1ccccc1-c1cnc(NC(=O)C(C)NC(=O)Cc2cc(F)cc(F)c2)s1 (stereo not shown) [compound 13, 2-{[2-(3,5-difluorophenyl)acetyl]amino}-N-{5-[2-(methoxymethyl)phenyl]-1,3-thiazol-2-yl}propanamide]
79 °C | CC[C@H](NC(=O)Cc1cc(F)cc(F)c1)C(=O)Nc1nc(C)c(-c2ccccc2COC(C)C)s1 [compound 69, (2S)-2-{[2-(3,5-difluorophenyl)acetyl]amino}-N-{5-[2-(isopropoxymethyl)phenyl]-4-methyl-1,3-thiazol-2-yl}butanamide]
165 °C | CCOCc1ccccc1-c1cnc(NC(=O)C(C)NC(=O)Cc2cc(F)cc(F)c2)s1 (stereo not shown) [compound 3, 2-{[2-(3,5-difluorophenyl)acetyl]amino}-N-{5-[2-(ethoxymethyl)phenyl]-1,3-thiazol-2-yl}propanamide]
80 °C | CCC[C@H](NC(=O)Cc1cc(F)cc(F)c1)C(=O)Nc1nc(CC)c(-c2ccccc2COC2CCCCC2)s1 [compound 59, (2S)-N-(5-{2-[(cyclohexyloxy)methyl]phenyl}-4-ethyl-1,3-thiazol-2-yl)-2-{[2-(3,5-difluorophenyl)-acetyl]amino}pentanamide]
74 °C | Cc1nc(NC(=O)[C@H](C)NC(=O)Cc2cc(F)cc(F)c2)sc1-c1ccccc1COC(C)C [compound 27, (2S)-2-{[2-(3,5-difluorophenyl)acetyl]amino}-N-{5-[2-(isopropoxymethyl)phenyl]-4-methyl-1,3-thiazol-2-yl}propanamide]
74 °C | CCC[C@H](NC(=O)Cc1cc(F)cc(F)c1)C(=O)Nc1nc(C(C)C)c(-c2ccccc2COC2CCCCC2)s1 [compound 63, (2S)-N-(5-{2-[(cyclohexyloxy)methyl]phenyl}-4-isopropyl-1,3-thiazol-2-yl)-2-{[2-(3,5-difluorophenyl)-acetyl]amino}pentanamide]
94 °C | CCC[C@H](NC(=O)Cc1cc(F)cc(F)c1)C(=O)Nc1nc(C)c(-c2ccccc2COC2CCCCC2)s1 [compound 52, (2S)-N-(5-{2-[(cyclohexyloxy)methyl]phenyl}-4-methyl-1,3-thiazol-2-yl)-2-{[2-(3,5-difluorophenyl)-acetyl]amino}pentanamide]
173 °C | CCOCc1ccccc1-c1cnc(NC(=O)[C@H](C)NC(=O)Cc2cc(F)cc(F)c2)s1 [compound 41, (2S)-2-{[2-(3,5-difluorophenyl)acetyl]amino)-N-(5-[2-(ethoxymethyl)phenyl]-1,3-thiazol-2-yl}propanamide]
70 °C | CCc1nc(NC(=O)[C@H](C)NC(=O)Cc2cc(F)cc(F)c2)sc1-c1ccccc1COC1CCCCC1 [compound 62, (2S)-N-(5-{2-[(cyclohexyloxy)methyl]phenyl}-4-ethyl-1,3-thiazol-2-yl)-2-{[2-(3,5-difluorophenyl)-acetyl]amino}propanamide]
73 °C | CC[C@H](NC(=O)Cc1cc(F)cc(F)c1)C(=O)Nc1ncc(-c2ccccc2COC(C)C)s1 [compound 70, (2S)-2-{[2-(3,5-difluorophenyl)acetyl]amino}-N-{5-[2-(isopropoxymethyl)phenyl]-1,3-thiazol-2-yl}butanamide]
73.9 °C | CCC[C@H](NC(=O)Cc1cc(F)cc(F)c1)C(=O)Nc1ncc(-c2ccc(OC)cc2COC(C)C)s1 [Compound No. 75, (2S)-2-{[2-(3,5-difluorophenyl)acetyl]amino}-N-(5-{2-(isopropoxymethyl)-4-methoxyphenyl}-1,3-thiazol-2-yl)pentanamide]

— patent US7288659B2, “Acylaminothiazole derivatives, their preparation and therapeutic use” (Sanofi-Aventis, priority 2001, dated 2007)
